Experimental data published in patent US20070161697A1, “Hydrazide type compounds and the use thereof in pharmaceutical compositions for the treatment of cardiovascular diseases” (priority 2004, published 2007).

What was measured:
Format in all cases: in vivo
ApoE −/− mice [1] = experiment: Abdominal fatty mass, ApoE mice on regimen rich in cholesterol and fat; conditions: 1 mg/kg, 3 months
Text: (§1) Firstly, mice devoid of the coding gene for Apo lipoprotein E (ApoE −/−) have been used. These mice represent a model of choice of studying early atherosclerosis and development of a plaque rich in foamy macrophages. Male C57BL/6J mice homozygote for deletion of the ApoE gene were subjected to a normal dietary regimen until the age of eight weeks. These mice (n=8 per group) subsequently received ad libitum and for 12 weeks either a dietary regimen not enriched with cholesterol or fat, or an enriched regimen, containing 1.5 g/kg of cholesterol and 200 g/kg of fat of milk origin. The untreated mice underwent daily intraperitoneal injections of a solution containing DMSO at 10%. The treated mice received by intraperitoneal injection the same solution containing 2 or 20 μg (i.e. 0.1 mg/kg/day or 1 mg/kg/day) of the compound CGP 02-01. Following the blood sample for the biochemical analyses, the mice were killed.
ApoE mice subjected to a dietary regimen rich in cholesterol and fat were killed after 3 months of treatment with the compound CGP 02-01 at doses of 0.1 mg/kg and 1 mg/kg. The abdominal fatty mass was recovered by dissection, dried and expressed as dry weight.

Wistar rats [2] = experiment: Circulating triglycerides, rats on dietary regimen rich in fructose; conditions: oral
Description: Secondly, the activity of the compound CGP 02-01 was studied using a reference rat-fructose model. Groups of Wistar rats (n=12) were subjected for 3 weeks to a dietary regimen containing […] of fructose. […] Groups of rats subsequently received by forced feeding 50 mg/kg of the compound CGP 02-01 dissolved in a 2% tween solution prepared in methylcellulose. The blood samples for the biochemical analyses were performed after 1, 2 and 3 weeks. Independent groups of rats wee treated under the same conditions with metformin hydrochloride at a dose of 50 mg/kg. The metformin served as a reference in this metabolic syndrome model. Assay of serum triglycerides may be performed enzymatically using the commercially available kit. One may use kits from Biomérieux for example (ref. 61.238). In summary, the triglycerides are treated with a lipase in order to generate fatty acids. In the presence of ATP, the glycerol is transformed by glycerokinase into glycerol 3 phosphate. The glycerol 3 phosphate is subsequently transformed into dihydroxyacetone in generating oxygenated water (H202) which may be detected by formation of quinoneimine in the presence of parachlorophenol, amino-4-antipyrin and peroxidase. The intensity of the quinoneimine coloration is subsequently measured at 505 nm. This coloration is proportional to the quantity of triglycerides present in the sample.

ApoE −/− mice [3] = experiment: Total cholesterol in plasma, ApoE −/− mice on dietary regimen rich in cholesterol; conditions: for Plasma total cholesterol level: untreated 7.27 ± 0.55
Text: as §1, with “The treated mice received by intraperitoneal injection the same solution containing 2 or 20 μg (i.e. 0.1 mg/kg/day or 1 mg/kg/day) of the compound CGP 02-01.” left out
The circulating total cholesterol may be measured by enzymatic assay using the commercially available kit. This assay may for example use an enzymatic sequence of the cholesterol-esterase/cholesteroloxydase/chromogenic peroxidase type. In summary, the total esterified cholesterol is transformed into free cholesterol and fatty acid by the action of cholesterol esterase. The non-esterified cholesterol is subsequently measured by the formation of quinoeimine in the presence of cholesterol oxidase and peroxidise. The intensity of the quinoneimine coloration is proportional to the quantity of cholesterol present in the sample.
When mice are subjected to a dietary regimen rich in cholesterol, the total cholesterol level decreases from a value of 7.27±0.55 g/L to a value of 6.86±0.65 g/L, i.e. a variation of 5.6%. This effect observed is dependent on the dose of CGP 02-01.

Wistar rats [4] = experiment: Plasma glucose level (glycaemia) in rats on fructose-rich regimen; conditions: oral, 21 days of treatment, FIG. 17
Description: Secondly, the activity of the compound CGP 02-01 was studied using a reference rat-fructose model. Groups of Wistar rats (n=12) were subjected for 3 weeks to a dietary regimen containing […] of fructose. […] Groups of rats subsequently received by forced feeding 50 mg/kg of the compound CGP 02-01 dissolved in a 2% tween solution prepared in methylcellulose. The blood samples for the biochemical analyses were performed after 1, 2 and 3 weeks. Independent groups of rats wee treated under the same conditions with metformin hydrochloride at a dose of 50 mg/kg. The metformin served as a reference in this metabolic syndrome model.

ApoE negative mice = experiment: Weight gain / abdominal fatty mass in ApoE negative mice on normal regimen; conditions: 20 μg per day for 41 days; normal dietary regimen; FIG. 2
Description: The mice were treated for 41 days at a dose of 20 μg of compound CGP02-01 per day. The control mice and the treated mice were fed with a normal dietary regimen without any cholesterol overload.

ApoE −/− mice [5] = experiment: Analysis of coronary ischaemia in ApoE −/− mice; conditions: injected; normal or cholesterol-rich regimen; FIG. 15
Text: as §1
After killing the ApoE −/− mice subjected to a normal dietary regimen or a dietary regimen rich in cholesterol, the hearts of these animals are observed macroscopically. The rate of ischaemic lesions is observed (FIG. 15) and quantified by the presence or absence of lesions (FIG. 16).

rats = experiment: Hyperglycaemia test (glucose tolerance) in rats on fructose-rich regimen; conditions: oral, glucose shock after 14th day, FIG. 18
Text: Rats (n=12) were subjected to a dietary regimen rich in fructose (10%) for 21 days. After the 14th day, hyperglycaemic shock is induced by administration of 2 g/kg of glucose in the presence or absence of the compound CGP 02-01 administered via the oral route. The plasma glucose level is subsequently measured.

SMILES: COc1cc(O)c(/C=N/NC(=O)c2cc3ccccc3s2)c(OC)c1 [CGP02-01, N′-[(1E)-(2-hydroxy-4,6-dimethoxyphenyl)methylene]-1-benzothiophene-2-carbohydrazide]
- Reduction in abdominal fatty mass (ApoE −/− mice [1]): 48.3%
- Abdominal fatty mass (dry weight) (ApoE −/− mice [1]; control 760±231, p<0.01): 393 ± 78 mg
- Plasma triglyceride level (Wistar rats [2]; 50 mg/kg, 3 weeks, control 1.39±0.13): 0.47 ± 0.07 g/L
- Variation of plasma triglyceride level (Wistar rats [2]; p<0.01): 66.2%
- Plasma total cholesterol level (ApoE −/− mice [3]; 0.4 mg/kg): 8.08 ± 0.62 g/L
- Variation of total cholesterol level vs untreated (ApoE −/− mice [3]; 1 mg/kg, 3 months): 5.6%
- Plasma total cholesterol level (ApoE −/− mice [3]; 1 mg/kg, 3 months): 6.86 ± 0.65 g/L
- Increase in glycaemia (Wistar rats [4]): stabilises this increase in glycaemia
- Weight gain (abdominal fatty mass) (ApoE negative mice): reduction in weight gain
- Coronary ischaemic (cardiac) lesions (ApoE −/− mice [5]): considerably reduced
- Effect against induced hyperglycaemia (2 g/kg glucose) (rats): protective effect
